Patent US4309559A, “Sulphonamides useful as pesticides” (FBC Limited, priority 1977, dated 1982)

Assays:
Format in all cases: in vivo
Peas (Pisum sativum) [1] = assay: Post-emergence foliar spray, herbicidal/growth regulant response, peas; conditions: Lathyrus oleraceus, 168 h, foliar spray 11.2 kg/ha, 7 days, 0=no effect, 100=complete kill, read-out: herbicidal or growth regulant response index
In short: (§1)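 Test compound, dissolved in 1:1 by volume aqueous acetone, is applied as a foliar spray equivalent to 11.2 kg/ha in 450 L/ha to seedlings two weeks after sowing. Responses are rated visually after one week on a 0–100 kill scale.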

Mustard (Sinapis alba) [2] = assay: Post-emergence foliar spray, herbicidal/growth regulant response, mustard; conditions: 168 h, foliar spray 11.2 kg/ha, 7 days, 0=no effect, 100=complete kill, read-out: herbicidal or growth regulant response index
In short: as §1

[3] = test system: Linseed (Linum usitatissimum); assay: Post-emergence foliar spray, herbicidal/growth regulant response, linseed; conditions: 168 h, foliar spray 11.2 kg/ha, 7 days, 0=no effect, 100=complete kill, read-out: herbicidal or growth regulant response index
In short: as §1

[4] = test system: Ryegrass (Lolium perenne); assay: Post-emergence foliar spray, herbicidal/growth regulant response, ryegrass; conditions: 168 h, foliar spray 11.2 kg/ha, 7 days, 0=no effect, 100=complete kill, read-out: herbicidal or growth regulant response index
In short: as §1

[5] = test system: Sugarbeet (Beta vulgaris); assay: Post-emergence foliar spray, herbicidal/growth regulant response, sugarbeet; conditions: 168 h, foliar spray 11.2 kg/ha, 7 days, 0=no effect, 100=complete kill, read-out: herbicidal or growth regulant response index
In short: as §1

Oat (Avena sativa) = assay: Post-emergence foliar spray, herbicidal/growth regulant response, oat; conditions: 168 h, foliar spray 11.2 kg/ha, 7 days, 0=no effect, 100=complete kill, read-out: herbicidal or growth regulant response index
In short: as §1

[6] = test system: French beans (Phaseolus vulgaris); assay: Post-emergence foliar spray, herbicidal/growth regulant response, French beans; conditions: foliar spray 11.2 kg/ha, 7 days, 0=no effect, 100=complete kill
Protocol: Seeds of the plant species listed below were sown in anodised aluminium pans, 19 cm long×9.5 cm wide×5 cm deep, containing John Innes I potting compost. They were then watered and placed in a controlled environment room (22° C.; 65-85% relative humidity; 14 hours per day artificial illumination at 13,000 lux). Fourteen days after sowing, the seedlings received a foliar spray of a compound listed below, formulated as a solution in 1:1 by volume aqueous acetone. The concentration of active ingredient and volume of application were adjusted so as to be equivalent to a rate of 11.2 kg/ha in 450 liters per hectare. After seven days growth in the controlled environment room, the plants were visually assessed for any herbicidal or growth regulant response. All differences from the untreated control were scored according to an index where 0=no effect and 100=complete kill.
The product of Example 95 was tested according to the procedure of Examples 49-55.

Peas (Pisum sativum) [7] = assay: Soil incorporation (attaclay/sand dust), growth regulatory or herbicidal effects, peas; conditions: Lathyrus oleraceus, 504 h, 21 days, 0=no effect, read-out: growth regulatory or herbicidal effect score
In short: (§2)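 Dust-formulated compound incorporated in potting compost, 26 or 130 ppm w/v; seeds sown, watered, 21 d at 22° C, 65-85% RH, 14 h/day 13,000 lux. Visual growth-regulatory/herbicidal score 0 (no effect) to 100 (complete kill) vs untreated.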

Mustard (Sinapis alba) [8] = assay: Soil incorporation (attaclay/sand dust), growth regulatory or herbicidal effects, mustard; conditions: 504 h, 21 days, 0=no effect, read-out: growth regulatory or herbicidal effect score
In short: as §2

[9] = test system: Linseed (Linum usitatissimum); assay: Soil incorporation (attaclay/sand dust), growth regulatory or herbicidal effects, linseed; conditions: 504 h, 21 days, 0=no effect, read-out: growth regulatory or herbicidal effect score
In short: as §2

Maize (Zea mays) = assay: Soil incorporation (attaclay/sand dust), growth regulatory or herbicidal effects, maize; conditions: 504 h, 21 days, 0=no effect, read-out: growth regulatory or herbicidal effect score
In short: as §2

Oats (Avena sativa) = assay: Soil incorporation (attaclay/sand dust), growth regulatory or herbicidal effects, oats; conditions: 504 h, 21 days, 0=no effect, read-out: growth regulatory or herbicidal effect score
In short: as §2

[10] = test system: Ryegrass (Lolium perenne); assay: Soil incorporation (attaclay/sand dust), growth regulatory or herbicidal effects, ryegrass; conditions: 504 h, 21 days, 0=no effect, read-out: growth regulatory or herbicidal effect score
In short: as §2

Cotton = assay: Soil incorporation (I), cotton; conditions: I soil incorporation 6.5 ppm, 21 days, 0=no effect, 100=complete suppression
Description: (§3) Each of the compounds listed below was formulated as: […]
(§4) (I) an attaclay/sand dust and incorporated in John Innes I potting compost at a rate equivalent to 6.5 and 3.25 parts per million weight/volume of active ingredient to soil and placed in anodised aluminium pans, 19 cm long×9.5 cm wide×5.0 cm high. This is approximately equivalent to a surface application of 2.8 and 1.4 kg active ingredient per hectare cultivated to a depth of 5 cm. Seeds of the species listed below were sown in the treated soil, one species per pan, watered and placed in a controlled environment room (22° C.; 65-85% relative humidity and 14 hours artificial illumination at 17,000 lux) for 21 days.
(§5) The plants were then visually assessed for any growth regulatory or herbicidal effects. All differences from an untreated control were scored on a scale from 0-100, where 0 signifies no effect and 100 signifies complete suppression.
(§6) The results are shown in the following table where I stands for soil incorporation and II for surface spray.

Tomato = assay: Soil incorporation (I), tomato; conditions: I soil incorporation 6.5 ppm, 21 days, 0=no effect, 100=complete suppression
Description: as §3, §4, §5, §6

Carrot = assay: Soil incorporation (I), carrot; conditions: I soil incorporation 6.5 ppm, 21 days, 0=no effect, 100=complete suppression
Description: as §3, §4, §5, §6

Chickweed = assay: Soil incorporation (I), chickweed; conditions: I soil incorporation 6.5 ppm, 21 days, 0=no effect, 100=complete suppression
Description: as §3, §4, §5, §6

Mustard = assay: Soil incorporation (I), mustard; conditions: I soil incorporation 6.5 ppm, 21 days, 0=no effect, 100=complete suppression
Description: as §3, §4, §5, §6

Fathen = assay: Soil incorporation (I), fathen; conditions: I soil incorporation 6.5 ppm, 21 days, 0=no effect, 100=complete suppression
Description: as §3, §4, §5, §6

[11] = soil incorporation 26 ppm, 100=complete kill
[12] = soil incorporation 130 ppm, 100=complete kill/suppression

CCOC(=O)C(CC)N(c1c(C)cccc1C)S(C)(=O)=O (stereo not shown) [Example 95]
pest or weed control at 11200 g/ha (Peas (Pisum sativum) [1]): 15% | pest or weed control at 11200 g/ha (Mustard (Sinapis alba) [2]): 100% | pest or weed control at 11200 g/ha [3]: 25% | pest or weed control at 11200 g/ha [4]: 15% | plant injury at 11200 g/ha [5]: 100% | plant injury at 11200 g/ha (Oat (Avena sativa)): 20% | herbicidal or growth regulant response index [6]: 100 | pest or weed control at 26 µg/mL (Peas (Pisum sativum) [7]; [11]): 20% | pest or weed control at 130 µg/mL (Peas (Pisum sativum) [7]; [12]): 30% | pest or weed control at 26 µg/mL (Mustard (Sinapis alba) [8]; [11]): 90% | pest or weed control at 130 µg/mL (Mustard (Sinapis alba) [8]; [12]): 100% | pest or weed control at 26 µg/mL [9, 11]: 0% | pest or weed control at 130 µg/mL [9, 12]: 80% | plant injury at 26 µg/mL (Maize (Zea mays); [11]): 50% | plant injury at 130 µg/mL (Maize (Zea mays); [12]): 100% | plant injury at 26 µg/mL (Oats (Avena sativa); [11]): 0% | plant injury at 130 µg/mL (Oats (Avena sativa); [12]): 100% | pest or weed control at 26 µg/mL [10, 11]: 90% | pest or weed control at 130 µg/mL [10, 12]: 100% | growth regulatory or herbicidal effect score (Cotton): 5 | growth regulatory or herbicidal effect score (Tomato): 90 | growth regulatory or herbicidal effect score (Carrot): 0 | growth regulatory or herbicidal effect score (Chickweed): 90 | growth regulatory or herbicidal effect score (Mustard): 50 | growth regulatory or herbicidal effect score (Fathen): 100
